Data on 19 molecules can be found in patent US20110217300A1, “Quinazolinone Compounds and Methods of Use Thereof” (priority 2007, published 2011).

In assay [1] the target is T1, HsEg5 (Homo sapiens, UniProt P52732).
T1 sequence (P52732 18-359 limits assumed): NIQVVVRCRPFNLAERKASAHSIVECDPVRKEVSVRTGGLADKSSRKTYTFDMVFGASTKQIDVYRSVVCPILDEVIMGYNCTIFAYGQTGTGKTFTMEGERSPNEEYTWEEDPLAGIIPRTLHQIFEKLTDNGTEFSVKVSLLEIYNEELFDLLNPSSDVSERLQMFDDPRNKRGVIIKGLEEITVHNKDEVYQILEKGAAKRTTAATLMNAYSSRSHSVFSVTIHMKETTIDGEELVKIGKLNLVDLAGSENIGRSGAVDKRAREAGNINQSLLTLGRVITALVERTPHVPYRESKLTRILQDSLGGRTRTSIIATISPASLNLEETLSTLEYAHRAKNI
As to the kind of experiment: Luminescent detection of HsEg5 ATPase activity (Kinase-Glo Plus). It is filed as biochemical. As to the method:
Purified HsEg5 motor fragment was activated by mixture with preformed MT polymer (Cytoskeleton, Denver, Colo.) at room temperature for 20 minutes. MT activated ATPase activity was measured using Kinase-Glo® Plus Luminescent Kinase Assay (Promega, Madison, Wis.).
For inhibitor screening, 5 μL of compounds were incubated with 20 μL of MT-activated HsEg5 such that the final concentrations for compound range from 100 μM to 5 nM (1 to 3 serial dilutions, final concentration) and final concentration for HsEg5 is 25 nM. The mixture was incubated at room temperature for 20 minutes with mild shaking. The screening assay contained 0.3% DMSO in all reaction wells. We used wells containing only DMSO as negative controls and wells without ATP as background. Addition of 15 μL of 13 μM ATP (final concentration of 5 μM) initiated the ATP hydrolysis reaction. The 40 μL-reaction was allowed to proceed at room temperature for 45 minutes before addition of 40 μL of Kinase®-Glo Plus. After 15-minute development at room temperature, the luminescent was measured.
Eg5 IC50 data was generated using both fluorescence and Luminescence detection assays as described above. Compounds I-69 were screened using automated fluorescence assay while compounds 70-83 were screened using Luminescence detection assay. (See reference “Zhang B, Senator D, Wilson C J, Ng S C. (2005) “Development of a high-throughput robotic fluorescence-based assay for HsEg5 inhibitor screening” Anal Biochem. 345:326-335″).

A further assay relates to NCI-H460. The experiment in a line: MTS cell viability assay. The note with it: Homo sapiens, NCI-H460, 72 h. The format is cell-based, human. In short, it runs like this: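 Cells in DMEM (4.5 g/L glucose) with 10% heat-inactivated FBS, 10 mM L-glutamine and 10 mM Hepes pH 7.5 at 37° C./5% CO2 were seeded at 100-5000 cells/well, then exposed to serially diluted compound (0.33% DMSO final) for 72 hours. Viability read by MTS/PMS reduction, absorbance 490 nm; GI50 reported.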

In a further assay the test system is A549. As to the kind of experiment: MTS cell viability assay. The format is cell-based. The note with it: Homo sapiens, read-out: MTS NCI A549 GI50. The essentials: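 A549 and a second human cancer line seeded in DMEM/10% FBS, allowed 16–24 h to attach, then exposed 72 h at 37 °C, 5% CO2 to serially diluted compound (final DMSO 0.33%). Viability measured by MTS.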

Assay [2] concerns the target T1, HsEg5. The experiment in a line: Fluorescence detection of HsEg5 ATPase activity (ADP Quest, automated). The format is biochemical. In short, it runs like this:
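Microtubule-activated HsEg5 motor fragment (10 nM, 500 nM MTs) preincubated 10 min with compound, then 20 μM ATP for 10 min at room temperature in Pipes pH 7.0, MgCl2, paclitaxel, 0.3% DMSO. ADP detected via coupled-enzyme resorufin fluorescence; IC50 over 100 μM–5 nM.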

[3] abbreviates: read-out: MTS NCI H460 GI50, NCI-H460 non small cell lung, 72 hours.
Setting [4] is: A549, 72 h, A549 non small cell lung, 72 hours.
Where [5] appears, read: A549 non small cell lung, 72 hours.

pIC50: −log10 of the molar value. Read-outs that look alike come from different tables or passages of the source. Where only a bound is given, the exact number is not on record here.

Take `C#CC[C@H](c1nc2cccnc2c(=O)n1Nc1ccccc1)N(CCCN)C(=O)c1cccc(Cl)c1F` [Compound 83, (R)—N-(3-Aminopropyl)-3-chloro-2-fluoro-N-(1-(4-oxo-3-(phenylamino)-3,4-dihydropyrido[3,2-d]pyrimidin-2-yl)but-3-ynyl)benzamide]: the pIC50 at HsEg5 [1] is 5.18. Further, the GI50 was 27000 nM in the assay with NCI-H460 (read-out: MTS NCI H460 GI50) and greater than 100000 nM in the assay with A549 (A549, 72 h).
With `C#CC[C@H](c1nc2cc(Cl)ccc2c(=O)n1Nc1ccccc1)N(CCCN)C(=O)c1cccc(F)c1F` [Compound 82, (R)—N-(3-Aminopropyl)-N-(1-(7-chloro-4-oxo-3-(phenylamino)-3,4-dihydroquinazolin-2-yl)but-3-ynyl)-2,3-difluorobenzamide], on HsEg5 [1], the pIC50 was 7.52.
On to `C#CC[C@H](c1nc2cc(Cl)ccc2c(=O)n1Nc1ccccc1)N(CCCN)C(=O)c1cc2ccccc2s1` [Compound 73, (R)—N-(3-Aminopropyl)-N-(1-(7-chloro-4-oxo-3-(phenylamino)-3,4-dihydroquinazolin-2-yl)but-3-ynyl)benzo[b]thiophene-2-carboxamide], for which the pIC50 on HsEg5 [1] is 6.92. For the same molecule, the GI50 in the assay with NCI-H460 (read-out: MTS NCI H460 GI50) was 330 nM; in the assay on A549 (A549, 72 h), 490 nM.
For `C#CC[C@H](c1nc2cc(Cl)ccc2c(=O)n1Nc1ccccc1)N(CCCN)C(=O)c1cc(F)cc(F)c1F` [Compound 81, (R)—N-(3-Aminopropyl)-N-(1-(7-chloro-4-oxo-3-(phenylamino)-3,4-dihydroquinazolin-2-yl)but-3-ynyl)-2,3,5-trifluorobenzamide] the same measures were 6.80, 340 nM and 660 nM.
The corresponding values for `C#CC[C@H](c1nc2cc(Cl)ccc2c(=O)n1Nc1ccccc1)N(CCCN)C(=O)c1ccc(C)cc1` [Compound 75, N-(3-Amino-propyl)-N—[(R)-1-(7-chloro-4-oxo-3-phenylamino-3,4-dihydro-quinazolin-2-yl)-but-3-ynyl]-4-methyl-benzamide] are 7.05, 1500 nM and 2800 nM.
The corresponding values for `C#CC[C@H](c1nc2cc(Cl)ccc2c(=O)n1Nc1ccccc1)N(CCCN)C(=O)c1c(F)cc(Cl)cc1F` [Compound 79] are 6.26, 430 nM and 1300 nM.
As to `CC#CCC(c1nc2cc(Cl)ccc2c(=O)n1Nc1ccccc1)N(CCCN)C(=O)c1cccc(Cl)c1F` (stereo not shown) [Compound 74, N-(3-Aminopropyl)-3-chloro-N-(1-(7-chloro-4-oxo-3-(phenylamino)-3,4-dihydroquinazolin-2-yl)pent-3-ynyl)-2-fluorobenzamide], the pIC50 on HsEg5 [1] was 5.23. The GI50 in the assay on NCI-H460 (read-out: MTS NCI H460 GI50) turned out to be 1230 nM; in the assay on A549 (A549, 72 h), 1800 nM.
For `C#CC[C@H](c1nc2cc(Cl)ccc2c(=O)n1Nc1ccccc1)N(CCCN)C(=O)c1c(F)c(F)cc(F)c1F` [Compound 71] the same measures were 6.80, 320 nM and 840 nM.
For `CCC(c1nc2cc(Cl)ccc2c(=O)n1Nc1ccccc1)N(CCCN)C(=O)c1ccc(C)cc1` (stereo not shown) [Compound 3, N-(3-Aminopropyl)-N-[1-(3-anilino-7-chloro-4-oxo-3,4-dihydroquinazolin-2-yl)propyl]-4-methylbenzamide], the pIC50 against HsEg5 [2] was 6.15. The figures for the GI50 in the assay with NCI-H460 (setting [3]) and in the assay with A549 (setting [4]) were 1190 nM and 2300 nM, respectively.
For the molecule `CCC(c1nc2cc(Cl)ccc2c(=O)n1Nc1ccccc1)N(CCCN)C(=O)c1cccc(Cl)c1F` (stereo not shown) [Compound 19, N-(3-Aminopropyl)-N-[1-(3-anilino-7-chloro-4-oxo-3,4-dihydroquinazolin-2-yl)propyl]-3-chloro-2-fluorobenzamide], the pIC50 at HsEg5 [2] is 6.24. Further, the GI50 was found to be 894 nM with NCI-H460 (read-out: MTS NCI H460 GI50) and 1570 nM in the assay on A549 (setting [5]).
Turning to `CCC(c1nc2cc(Cl)ccc2c(=O)n1Oc1ccccc1)N(CCCN)C(=O)c1ccc(C)cc1` (stereo not shown) [Compound 29, N-(3-Aminopropyl)-N-[1-(7-chloro-4-oxo-3-phenoxy-3,4-dihydroquinazolin-2-yl)propyl]-4-methylbenzamide], on HsEg5 [2], the pIC50 is 5.66. Besides, the concentration for 50% growth inhibition (GI50) in the assay with NCI-H460 (setting [3]) amounted to 2090 nM; in the assay on A549 (setting [4]), 3310 nM.
`CCC(c1nc2cc(Cl)ccc2c(=O)n1Nc1ccccc1)N(CCCN)Cc1ccc(C)cc1` (stereo not shown) [Compound 67, 2-{1-[(3-Aminopropyl)(4-methyl-benzyl)amino]propyl}-3-anilino-7-chloro-3H-quinazolin-4-one] showed a pIC50 against HsEg5 [2] of 5.08. For the same molecule, the results for the GI50 in the assay with NCI-H460 (read-out: MTS NCI H460 GI50) and in the assay with A549 (setting [5]) were 13100 nM and 15500 nM, respectively.
Take `CC(C)C(c1nc2cc(Cl)ccc2c(=O)n1Nc1ccccc1)N(CCCN)C(=O)c1cccc(Br)c1` (stereo not shown) [Compound 44, N-(3-Aminopropyl)-N-[1-(3-anilino-7-chloro-4-oxo-3,4-dihydroquinazolin-2-yl)-2-methylpropyl]-3-bromobenzamide]: at HsEg5 [2], the pIC50 was 5.73. Moreover, the GI50 was 13400 nM in the assay on NCI-H460 (setting [3]) and 13800 nM with A549 (setting [4]).
Molecule `CCC(c1nc2cc(Cl)ccc2c(=O)n1Nc1ccccc1F)N(CCCN)C(=O)c1ccc(C)cc1` (stereo not shown) [Compound 25, N-(3-Aminopropyl)-N-(1-{7-chloro-3-[(2-fluorophenyl)amino]-4-oxo-3,4-dihydroquinazolin-2-yl}propyl)-4-methylbenzamide] gave a pIC50 against HsEg5 [2] of 5.84. The GI50 in the assay on NCI-H460 (read-out: MTS NCI H460 GI50) stood at 959 nM; in the assay on A549 (setting [5]), 1520 nM.
As for `NCCCN(C(=O)c1cccc(F)c1F)C(Cc1cccs1)c1nc2cc(Cl)ccc2c(=O)n1Nc1ccccc1` (stereo not shown) [Compound 50, N-(3-Aminopropyl)-N-[1-(3-anilino-7-chloro-4-oxo-3,4-dihydroquinazolin-2-yl)-2-(2-thienyl)ethyl]-2,3-difluorobenzamide], the pIC50 against HsEg5 [2] was 5.93. In addition, the GI50 stood at 3120 nM in the assay on NCI-H460 (setting [3]) and 3770 nM with A549 (setting [4]).
`CC(C)C(c1nc2cc(Cl)ccc2c(=O)n1Nc1ccccc1)N(CCCN)C(=O)c1cc(F)c(Cl)cc1F` (stereo not shown) [Compound 45, N-(3-Aminopropyl)-N-[1-(3-anilino-7-chloro-4-oxo-3,4-dihydroquinazolin-2-yl)-2-methylpropyl]-4-chloro-2,5-difluorobenzamide]: on HsEg5 [2], the pIC50 was 6.13. For the same molecule, the results for the GI50 in the assay on NCI-H460 (read-out: MTS NCI H460 GI50) and in the assay on A549 (setting [5]) were 3170 nM and 3240 nM, respectively.
For `CCC(c1nc2ccc(C)cc2c(=O)n1Nc1ccccc1)N(CCCN)C(=O)c1ccc(C)cc1` (stereo not shown) [Compound 28, N-(3-Aminopropyl)-N-[1-(3-anilino-6-methyl-4-oxo-3,4-dihydroquinazolin-2-yl)propyl]-4-methylbenzamide] the same measures were 5.80, 1350 nM and 2500 nM.
Molecule `CCC(c1nc2cc(Cl)ccc2c(=O)n1Nc1ccccc1)N(CCCN)C(=O)c1c(F)ccc(C)c1F` (stereo not shown) [Compound 17, N-(3-Aminopropyl)-N-[1-(3-anilino-7-chloro-4-oxo-3,4-dihydroquinazolin-2-yl)propyl]-2,6-difluoro-3-methylbenzamide] showed a pIC50 against HsEg5 [2] of 5.80. For the same molecule, the GI50 amounted to 1590 nM with NCI-H460 (setting [3]) and 2560 nM with A549 (setting [4]).
Consider `CCC(c1nc2cc(Cl)ccc2c(=O)n1Nc1ccccc1)N(CCCN)C(=O)c1ccc(C)c(F)c1` (stereo not shown) [Compound 16, N-(3-Aminopropyl)-N-[1-(3-anilino-7-chloro-4-oxo-3,4-dihydroquinazolin-2-yl)propyl]-3-fluoro-4-methylbenzamide], for which, on HsEg5 [2], the pIC50 was 5.94. Moreover, the values for the GI50 with NCI-H460 (read-out: MTS NCI H460 GI50) and in the assay on A549 (setting [5]) were 929 nM and 1360 nM, respectively.
